Source: ChEMBL document CHEMBL1158268, “Antiplatelet of vasorelaxing actions of some benzylisoquinoline and phenanthrene alkaloids” (1996)

Legend:
Set-up in all cases: scale not given: the % may be the effect or the level left
[1] = system: Platelet; assay: Inhibition of adenosine diphosphate-induced platelet aggregation in rabbit platelet-rich plasma at 100 ug/ml by turbidimetric method; assay type: functional, Oryctolagus cuniculus
[2] = system: Platelet; assay: Inhibition of platelet-activity factor-induced platelet aggregation in rabbit platelet-rich plasma at 100 ug/ml by turbidimetric method; assay type: functional, Oryctolagus cuniculus
[3] = system: Platelet; assay: Inhibition of arachidonic acid-induced platelet aggregation in rabbit platelet-rich plasma at 100 ug/ml by turbidimetric method; assay type: functional, Oryctolagus cuniculus
[4] = system: Platelet; assay: Inhibition of collagen-induced platelet aggregation in rabbit platelet-rich plasma at 100 ug/ml by turbidimetric method; assay type: functional, Oryctolagus cuniculus
[5] = system: Aorta; assay: Vasorelaxant activity against norepinephrine-induced phasic contraction in Wistar rat thoracic aorta at 100 ug/ml; assay type: functional
[6] = system: Aorta; assay: Vasorelaxant activity against high potassium-induced contraction in Wistar rat thoracic aorta at 100 ug/ml; assay type: functional
[7] = system: Aorta; assay: Vasorelaxant activity against norepinephrine-induced tonic contraction in Wistar rat thoracic aorta at 100 ug/ml; assay type: functional
[8] = system: Platelet; assay: Inhibition of arachidonic acid-induced platelet aggregation in rabbit platelet-rich plasma at 50 ug/ml by turbidimetric method; assay type: functional, Oryctolagus cuniculus
[9] = system: Platelet; assay: Inhibition of collagen-induced platelet aggregation in rabbit platelet-rich plasma at 50 ug/ml by turbidimetric method; assay type: functional, Oryctolagus cuniculus
[10] = system: Platelet; assay: Inhibition of platelet-activity factor-induced platelet aggregation in rabbit platelet-rich plasma at 50 ug/ml by turbidimetric method; assay type: functional, Oryctolagus cuniculus
[11] = system: Platelet; assay: Inhibition of adenosine diphosphate-induced platelet aggregation in rabbit platelet-rich plasma at 50 ug/ml by turbidimetric method; assay type: functional, Oryctolagus cuniculus
[12] = system: Aorta; assay: Vasorelaxant activity against norepinephrine-induced phasic contraction in Wistar rat thoracic aorta at 20 ug/ml; assay type: functional
[13] = system: Aorta; assay: Vasorelaxant activity against high potassium-induced contraction in Wistar rat thoracic aorta at 20 ug/ml; assay type: functional
[14] = system: Aorta; assay: Vasorelaxant activity against norepinephrine-induced tonic contraction in Wistar rat thoracic aorta at 20 ug/ml; assay type: functional
[15] = system: Platelet; assay: Inhibition of platelet-activity factor-induced platelet aggregation in rabbit platelet-rich plasma at 25 ug/ml by turbidimetric method; assay type: functional, Oryctolagus cuniculus
[16] = system: Platelet; assay: Inhibition of adenosine diphosphate-induced platelet aggregation in rabbit platelet-rich plasma at 25 ug/ml by turbidimetric method; assay type: functional, Oryctolagus cuniculus
[17] = system: Platelet; assay: Inhibition of collagen-induced platelet aggregation in rabbit platelet-rich plasma at 25 ug/ml by turbidimetric method; assay type: functional, Oryctolagus cuniculus
[18] = system: Platelet; assay: Inhibition of arachidonic acid-induced platelet aggregation in rabbit platelet-rich plasma at 25 ug/ml by turbidimetric method; assay type: functional, Oryctolagus cuniculus
[19] = system: Aorta; assay: Vasorelaxant activity against norepinephrine-induced tonic contraction in Wistar rat thoracic aorta at 50 ug/ml; assay type: functional
[20] = system: Aorta; assay: Vasorelaxant activity against high potassium-induced contraction in Wistar rat thoracic aorta at 50 ug/ml; assay type: functional
[21] = system: Aorta; assay: Vasorelaxant activity against norepinephrine-induced phasic contraction in Wistar rat thoracic aorta at 50 ug/ml; assay type: functional
[22] = system: Aorta; assay: Vasorelaxant activity against high potassium-induced contraction in Wistar rat thoracic aorta at 1 ug/ml; assay type: functional
[23] = system: Aorta; assay: Vasorelaxant activity against norepinephrine-induced tonic contraction in Wistar rat thoracic aorta at 1 ug/ml; assay type: functional
[24] = system: Aorta; assay: Vasorelaxant activity against norepinephrine-induced phasic contraction in Wistar rat thoracic aorta at 1 ug/ml; assay type: functional

| SMILES | Activity [1] [%] | Activity [2] [%] | Activity [3] [%] | Activity [4] [%] | Activity [5] [%] | Activity [6] [%] | Activity [7] [%] | further results |
| --- | --- | --- | --- | --- | --- | --- | --- | --- |
| COc1ccc(C[C@@H]2c3cc(OC)c(OC)cc3CCN2C)cc1OC | 92.2 | 92.5 | 81.2 | 81.4 |  |  |  |  |
| COc1cc2ccc3c(CCN(C)C)cc4c(c3c2cc1OC)OCO4 | 34.9 | 80.5 | 46.9 | 6.1 | 7.1 | 44.6 | 0 |  |
| COc1ccc2c(ccc3c(CCN(C)O)cc4c(c32)OCO4)c1 |  |  |  |  | 102 | 55.8 | 91.9 | Activity [8]: 0%; Activity [9]: 23.5%; Activity [10]: 74.8%; Activity [11]: 58.6% |
| COc1cc(CC[N+](C)(C)[O-])c2ccc3ccccc3c2c1OC | 37.4 | 61.1 | 0 | 0 | 30 | 5.8 | 27.5 |  |
| COc1cc2ccc3c(CC[N+](C)(C)[O-])cc(OC)c(OC)c3c2cc1OC | 74.6 | 87.2 | 83.5 | 52.1 |  |  |  | Activity [12]: 72.5%; Activity [13]: 104.2%; Activity [14]: 83.2% |
| COc1cc2c(cc1OC)[C@H](Cc1ccc(O)cc1)NCC2.[O-][Cl+3]([O-])([O-])O | 63.1 | 78.2 | 60.5 | 83.6 | 100 | 43 | 90.5 |  |
| COc1ccc(C[C@@H]2NCCc3cc(OC)c(OC)cc32)cc1.O=C(O)C(=O)O | 93.4 | 91.4 | 87.3 | 86.6 |  |  |  |  |
| COc1ccc(C[C@H]2NCCc3cc(OC)c(OC)cc32)cc1 | 93.1 | 90.7 | 89.2 | 79.2 |  |  |  |  |
| COc1cc2c(cc1OC)[C@H](Cc1ccc(O)cc1)N(C)CC2.O=C(O)C(=O)O | 89.7 | 91.5 | 79.5 | 82.4 |  |  |  |  |
| COc1cc2c(cc1OC)[C@@H](Cc1ccc(O)cc1)N(C)CC2.O=C(O)C(=O)O | 92.7 | 93.6 | 91.3 | 88.4 |  |  |  |  |
| COc1cc2c(cc1OC)[C@H](Cc1ccc(O)cc1)[N+](C)(C)CC2.[I-] | 93.7 | 88.4 | 66.8 | 39.6 |  |  |  |  |
| COc1cc2c(cc1OC)C(Cc1ccc(O)cc1)NCC2 (racemic) | 30.4 | 86.4 | 49.7 | 24.7 | 103 | 107.8 | 95.7 |  |
| COc1cc2c(cc1O)C(Cc1ccc(O)cc1)NCC2 (racemic) [COCLAURINE] | 70.2 | 72.7 | 0 | 69.7 | 100 | 109.9 | 93.7 |  |
| COc1cc2c(cc1O)C(Cc1ccc(O)cc1)N(C)CC2 (racemic) [METHYL COCLAURINE] | 73.6 | 75.7 | 13.8 | 24.8 |  |  |  | Activity [12]: 149.6%; Activity [13]: 70.8%; Activity [14]: 106.6% |
| COc1ccc(C[C@H]2c3cc(O)c(OC)cc3CCN2C)cc1O [(S)-RETICULINE] | 58.7 | 85.9 | 39.2 | 84.2 | 100 | 109.3 | 110.5 |  |
| CC(=O)Oc1ccccc1C(=O)O [ASPIRIN] |  |  |  |  |  |  |  | Activity [15]: 90.4%; Activity [16]: 77.9%; Activity [17]: 87.8%; Activity [18]: 0% |
| COc1cc(CCN(C)C)c2ccc3ccccc3c2c1OC.[O-][Cl+3]([O-])([O-])O [ATHEROSPERMININE HCLO4] | 0 | 0 | 0 | 0 | 0 | 0 | 0 |  |
| COc1cc(CC[N+](C)(C)C)c2ccc3ccccc3c2c1OC.[I-] [ATHEROSPERMINIUM I] | 0 | 0 | 0 | 0 |  |  |  | Activity [12]: 108.3%; Activity [13]: 38.3%; Activity [14]: 100.5% |
| COc1ccc(C[C@H]2c3cc(OC)c(OC)cc3CCN2C)cc1O [LAUDANIDINE] |  |  |  |  |  |  |  | Activity [8]: 89%; Activity [19]: 80.9%; Activity [9]: 87.9%; Activity [20]: 105%; Activity [21]: 58.5%; Activity [10]: 90%; Activity [11]: 77.6% |
| COc1cc2c(cc1O)[C@@H](Cc1ccc(O)cc1)[N+](C)(C)CC2.[I-] [MAGNOCURARINE IODIDE] | 69 | 23.2 | 87.4 | 87.7 | 122.5 | 134.7 | 123.5 |  |
| COC(=O)C1=C(C)NC(C)=C(C(=O)OC)C1c1ccccc1[N+](=O)[O-] [NIFEDIPINE] |  |  |  |  |  |  |  | Activity [22]: 0% |
| COc1cc2c(cc1OC)[C@H](Cc1ccc(O)cc1)NCC2 [NORARMEPAVINE] | 69.7 | 57.8 | 75.5 | 83.4 | 121.9 | 71.2 | 105.7 |  |
| COc1cc2nc(N3CCN(C(=O)c4ccco4)CC3)nc(N)c2cc1OC [PRAZOSIN] |  |  |  |  |  |  |  | Activity [23]: 100%; Activity [24]: 0% |
